Test results published in patent publication US20160024597A1, “miRNAs AS THERAPEUTIC TARGETS IN CANCER” (The Research Foundation For The State University Of New York, priority 2009, published 2016).

What was measured:
[1] = tested on: CD133+hi/CD44+hi colon cancer stem-like cells; assay: 5-FU cell death assay, FITC Annexin V and PI flow cytometry; format: cell-based; details: FACS-sorted CD133+hi/CD44+hi cells, lethal dose of 5-FU (100 μM) for 48 h
Procedure: HCT 116 (wt-p53) cells were sorted with multiparametric flow cytometry with BD FACS Aria cell sorter (Becton Dickinson, CA) at sterile conditions. Cells were prepared as described above and labeled with one or several markers conjugated anti-human CD133-PE (clone 105902; R&D Systems, MN); CD44-FITC (clone F10-44-2, R&D Systems, MN). Antibodies were diluted in buffer containing 5% BSA, 1 mM EDTA and 15-20% blocking reagent (Miltenyi Biotec, CA) to inhibit unspecific binding to non-target cells. After 15 min incubation at 4° C., stained cells were washed, resuspended in 500 μl of MACS buffer and sorted.
(§1) Colon cancer stem-like cells were transfected with 100 nM of LNA anti-miR-140 using Lipofectamine 2000 after FACS-sorting. […] The dead cells were determined by the fluorescein isothiocyanate (FITC) Annexin V and PI detection kit (BD Biosciences, Pharmingen, San Diego, Calif., USA). Briefly, cells were harvested and resuspended in 1× Annexin V binding and stained with Annexin V (5 μl) and PI (5 μl) for 15 min at room temperature in the dark. After additional 400 μl of binding buffer, cells were analyzed by flow cytometry. […]

[2] = tested on: nonsorted control HCT 116 (wt-p53) cells; assay: as above; format: cell-based, human; details: lethal dose of 5-FU (100 μM) for 48 h
Procedure: as §1

[3] = tested on: HCT 116 (null-p53) cells; assay: WST-1 cell proliferation assay after miR-140 transfection; format: cell-based, human; details: 100 nM transfected, day 5, n=6
Procedure: (§2) Cells were plated in six-well plates at a density of 2×10^5 cells/well. The next day, cells were transfected with 100 nM of miR-140 precursor or non specific miR control (Ambion, Inc.) with Oligofectamine (Invitrogen Inc.) based on the manufacturer's instructions. Positive control siRNA specific against HDAC4 (ON-TARGET plus SMARTpool L-003497-00-0010, human HDAC4, NM 006037) was purchased from Dharmacon and transfected with Oligofectamine according to the manufacturer's protocols at a final concentration of 100 nM.
(§3) Cells were plated in 96-well plates with 6 repeats at 2,000 cells/well after transfection with miR-140 or miR control. Cells were cultured for 24, 48, 72, 96 and 120 h. The absorbance at 450 and 630 nm was measured after incubation with 10 μl of WST-1 for 1 h.

[4] = tested on: HCT 116 (wt-p53) cells; assay: as above; format: cell-based, human; details: 100 nM transfected, day 5, n=6
Procedure: as §2, §3

[5] = tested on: HCT 116 (wt-p53) cells; assay: Chemosensitivity assay to 5-fluorouracil (WST-1); format: cell-based, human; details: 100 nM transfected, 5-FU 2 to 100 μM for 72 h, vs miR control
Procedure: HCT 116 (wt-p53) cells were replated in 96-well plates at 2×10^3 cells per well in triplicate after transfected with miR-140, miR control or siRNA against HDAC4 in 100 μl of medium. After 24 h, 5-FU (ranged from 2 to 100 μM) was added and incubated for 72 h. WST-1 (10 μl) was added to each well. After 1 h incubation, absorbance was measured. Nonspecific miR was used as the negative control.

[6] = tested on: HCT 116 (null-p53) cells; assay: Cell cycle analysis by flow cytometry; format: cell-based, human; details: 100 nM, 36 h after transfection
Procedure: (§4) Cells were transfected with miR-140 and miR control described as above. At 36 h after transfection, cells were harvested and resuspended at 0.5-1×10^5 cells/ml in modified Krishan buffer (He, 2007; Tarasov, 2007), containing 0.1% sodium citrate and 0.3% NP-40 and kept at 4° C. Before being analyzed by flow cytometry, cells were treated with 0.02 mg/ml RNase H and stained with 0.05 mg/ml propidium iodide (Sigma).

[7] = tested on: HCT 116 (wt-p53) cells; assay: Cell cycle analysis by flow cytometry; format: cell-based, human; details: 100 nM, 36 h after transfection, vs miR control
Procedure: as §4

[8] = tested on: HDAC4 protein; assay: HDAC4 protein expression by Western immunoblot after transfection; format: cell-based, human; details: U-2 OS (wt-p53) and HCT 116 (wt-p53) cells, 100 nM, 48 h after transfection
Procedure: as §2
Forty-eight hours after transfection with miR-140 or miR control, cells were harvested and lysed in 1×RIPA buffer (Sigma) supplied with 100 uM PMSF (sigma) and proteinase inhibitor cocktail (Sigma). Equal amounts of protein were resolved by a 8% SDS-PAGE gels using the method of Laemmli (Laemmli, 1970), and transferred to polyvinylidene fluoride membranes (BIO-RAD Laboratories). The membranes were then blocked by 5% nonfat milk in TBST (Tris-buffered saline and 1% Tween-20) at room temperature for 1 h. The primary antibodies used for the analysis included goat anti-HDAC4 polyclonal Ab (1:1000, N-18), mouse anti-p53 mAb (1:1000, DO-1), mouse anti-p21 mAb(1:1000, F-5), mouse anti-tubulin mAb (1:1000, TU-02), all from Santa Cruz Biotechnology. […]

[9] = tested on: p21; assay: p21 expression by Western immunoblot; format: cell-based; details: U-2 OS (wt-p53) and HCT 116 (wt-p53) cells, 48 h after transfection
Procedure: (§5) Forty-eight hours after transfection with miR-140 or miR control, cells were harvested and lysed in 1×RIPA buffer (Sigma) supplied with 100 uM PMSF (sigma) and proteinase inhibitor cocktail (Sigma). Equal amounts of protein were resolved by a 8% SDS-PAGE gels using the method of Laemmli (Laemmli, 1970), and transferred to polyvinylidene fluoride membranes (BIO-RAD Laboratories). The membranes were then blocked by 5% nonfat milk in TBST (Tris-buffered saline and 1% Tween-20) at room temperature for 1 h. The primary antibodies used for the analysis included goat anti-HDAC4 polyclonal Ab (1:1000, N-18), mouse anti-p53 mAb (1:1000, DO-1), mouse anti-p21 mAb(1:1000, F-5), mouse anti-tubulin mAb (1:1000, TU-02), all from Santa Cruz Biotechnology. Horseradish peroxidase-conjugated antibodies against mouse or goat (1:1000, Santa Cruz Biotechnology) were used as the secondary antibodies. Protein bands were visualized with a chemiluminescence detection system using Super Signal substrate (Pierce).

[10] = tested on: HCT 116 (wt-p53) cells; assay: Chemosensitivity assay to methotrexate (WST-1); format: cell-based, human; details: 100 nM transfected, methotrexate 10-1000 nM for 72 h, vs miR control
Procedure: U-2 OS and HCT 116 (wt-p53) cells were replated in 96-well plates at 2×10^3 cells/well in triplicate after transfected with miR-140, miR control, or siRNA against HDAC4 in 100 μl of medium. Twenty-four hours later, methotrexate (ranged from 10-1000 nM) was added and incubated for 72 h. Ten μl of WST-1 (Roche Applied Science) was added to each well. After 1 h incubation, absorbance was measured at 450 and 630 nm respectively. Non-specific miRNA was used as the negative control.

[11] = tested on: HDAC4 mRNA; assay: HDAC4 mRNA expression by real time qRT-PCR; format: cell-based, human; details: U-2 OS (wt-p53) and HCT 116 (wt-p53) cells, 100 nM, 24 hrs, GAPDH normalized
Procedure: as §2
Total RNA, including miRNAs, was isolated from cell lines or clinical specimens by using TRIzol reagent (Invitrogen, Inc.) according to the manufacturer's instructions to determine whether the cells were transfected with miR control, miR-140 or siHDAC4 at a final concentration of 100 nM for 24 hrs before RNA isolation.
cDNA was synthesized with the High Capacity cDNA synthesis kit (Applied Biosystems) using 2 μg of total RNA as the template and 10× random primers. Real-time qPCR analysis was done on the experimental mRNAs. The PCR primers and probes for HDAC4, and the internal control gene GAPDH were purchased from Applied Biosystems. qRT-PCR was done on an ABI 7500HT instrument under the following conditions: 50° C., 2 min for one cycle; 95° C., 10 min; 95° C., 15 s; 60° C., 1 min for 40 cycles (n=3).

[12] = tested on: U-2 OS cells (wt-p53); assay: Cell cycle analysis by flow cytometry; format: cell-based; details: U-2 OS (wt-p53), 100 nM, 36 h after transfection, vs miR control
Procedure: as §4

[13] = tested on: MG63 cells (mut-p53); assay: Cell cycle analysis by flow cytometry; format: cell-based; details: 100 nM, 36 h after transfection
Procedure: as §4

[14] = tested on: p53; assay: p53 expression by Western immunoblot; format: cell-based; details: U-2 OS (wt-p53) and HCT 116 (wt-p53) cells, 48 h after transfection
Procedure: as §5

[15] = tested on: U-2 OS cells (wt-p53); assay: WST-1 cell proliferation assay after miR-140 transfection; format: cell-based; details: U-2 OS (wt-p53), 100 nM transfected, day 5, n=6
Procedure: as §2, §3

[16] = tested on: MG63 cells (mut-p53); assay: as above; format: cell-based; details: 100 nM transfected, day 5, n=6
Procedure: as §2, §3

O=c1[nH]cc(F)c(=O)[nH]1 [5-FU, 5-fluorouracil]
cell death [1]: about 20% | cell death [2]: > 80%

miR-140: miR-140 precursor (Ambion) transfected at 100 nM to overexpress human miR-140 (SEQ ID NO:1/2) (chain 1 AGUGGUUUUACCUAUGGUAG; chain 2 CAGUGGUUUUACCCUAUGGUAG; listed as RNA, chemistry not given here; listed as Homo sapiens)
suppression of cellular proliferation [3]: 22.42±1.88% | suppression of cellular proliferation [4]: 81.4±3.75% | chemosensitivity to 5-fluorouracil of transfected cells [5]: more resistant | G1 and G2 arrest [6]: has not been observed | G1 arrest [7]: 3.33 fold | G2 arrest [7]: 2.54 fold | HDAC4 protein expression [8]: clearly decreased | p21 protein expression [9]: increased | chemosensitivity to methotrexate of transfected cells [10]: more resistant | HDAC4 mRNA expression [11]: no change | G1 arrest [12]: 1.76 fold | G2 arrest [12]: 0.92 fold | G1 and G2 arrest [13]: has not been observed | p53 protein expression [14]: increased | suppression of cellular proliferation [15]: 64.05±4.01% | suppression of cellular proliferation [16]: 31.3±4.96%
